Structures can show the parent of a compound that is named as a salt. Where two headings read alike, the source gives them in different places.
Test: in vitro
Assay type: in vitro ADME, human
Text: Table 4 lists the serum half-lives for several model compounds and two representative pharmaceutical agent-chemical modifier complexes using an in vitro assay system described in the Experimental section below. Of course, the serum half-lives will vary in vivo depending upon the age and health condition of the patient. Each complex comprises a model compound or a pharmaceutical agent, a spacer group, and a chemical modifier. Many of the model compounds utilize 4-nitrophenyl(ethanol, propanol, or cyclohexanol) or 4-nitrophenylethylamine as the "model" pharmaceutical agent. A more complete listing of serum half-lives may be found in the Experimental section below.
General procedure for serum hydrolysis of pharmaceutical agent-modifier complexes
Stock solutions (6 mM) of the pharmaceutical agent-modifier complexes were prepared in ethanol (by vortexing, sonication or warming at 37° C. if necessary). If required for solubility, a drop of dimethylsulfoxide, dimethylformamide or methanol may be added. (Acetonitrile cannot be used because it deactivates the serum enzymes.)
HPLC separation methods were established for each study by dilution of the above stock solution (6 μl) in acetonitrile (1 ml) to give a 36 μM solution. Samples (10 μl) were injected onto a Nucleosil 5C8 (250×4 mmID) and guard column (11×4 mm ID) and eluted with a mobile phase of approximately 65% HPLC grade water and 35% of a solution of 0.1% trifluoroacetic acid in acetonitrile, the exact proportions being adjusted in each case to give optimum separation and run times.
Freshly defrosted human serum (3 ml, Sigma) was warmed at 37° C. for five minutes and then 60 μl of the agent-modifier complex stock solution was added with vortexing. […] The aliquots were added to 800 μl of 2% zinc sulfate solution in a 1.5 ml disposable microcentrifuge tube, vortexed immediately and centrifuged at 14,000 RPM for 3 minutes. The supernatants (10 μl) were then injected onto the HPLC and peak areas were used to determine the % remaining. Serum blanks were prepared similarly by addition of serum to the zinc sulfate solution followed by centrifugation, and time=0 samples were also prepared by adding serum to the zinc sulfate solution followed by addition of the complex and separation by centrifugation. The time=0 samples, as well as the original stock solutions, were also used to study the stability of the complex in the absence of enzyme. Half-lives were calculated using the equation
by plotting time (x) vs. ln % remaining (y) to obtain the slope (m) and the y intercept (b).

[1] = human, serum, Table 5, human serum, 37° C., read-out: Serum Half-life (converted)
[2] = human, serum, Table 4, human serum, 37° C., read-out: In vitro Half-Life (converted)
[3] = human, serum, Table 4, read-out: serum half-life (converted)

Compound | half-life [1] [min] | further results
2-(4-nitrophenyl)ethylamine choline chloride carbamate |  | In vitro Half-Life (human, serum): 86 h; Serum Half-life (human, serum): 86 h
COC(=O)CC(CN(C)C)OC(=O)Cc1c(C)n(C(=O)c2ccc(Cl)cc2)c2ccc(OC)cc12 (racemic) [3-O-(indomethacinoyl)-D,L-norcarnitine methyl ester] | 257 | Serum Half-life (Table 5, human serum, 37° C., listed as O-indomethacinyl-(D,L-norcarnitine methyl ester)): 4.3 h
COC(=O)CC(C[N+](C)(C)C)OC(=O)Cc1c(C)n(C(=O)c2ccc(Cl)cc2)c2ccc(OC)cc12 (racemic) [O-indomethacinyl-(D,L-carnitine methyl ester), iodide salt] | 660 | 
COc1cc(NC(=O)OCC[N+](C)(C)C)c(Cl)cc1C(=O)N[C@H]1CCN(CCCOc2ccc(F)cc2)C[C@H]1OC (relative stereo) [cisapride choline carbamate, chloride salt] | 150 | 
COc1cc(NC(=O)c2ccc[n+](C)c2)c(Cl)cc1C(=O)N[C@H]1CCN(CCCOc2ccc(F)cc2)C[C@H]1OC (relative stereo) [cisapride-(N-(1-methylpyridinium-3-carboxamide), chloride salt] | 60 | 
COc1cc(N)c(Cl)cc1C(=O)N[C@H]1CC[N+](CCCOc2ccc(F)cc2)(COC(=O)CCCCC[N+](C)(C)C)C[C@H]1OC (relative stereo) [cisapride-N-(6-trimethylammoniohexanoyloxymethylammonio), diiodide salt] | 60 | 
COc1cc(N)c(Cl)cc1C(=O)N[C@H]1CC[N+](CCCOc2ccc(F)cc2)(COC(C)=O)C[C@H]1OC (relative stereo) [cisapride-N-acetoxymethylammonio, iodide salt] | 6.5 | 
CCCC(=O)OC[N+]1(CCCOc2ccc(F)cc2)CC[C@H](NC(=O)c2cc(Cl)c(N)cc2OC)[C@H](OC)C1 (relative stereo) [cisapride-N-butyroyloxymethylammonio, iodide salt] | 7.6 | 
CCOC(=O)OC[N+]1(CCCOc2ccc(F)cc2)CC[C@H](NC(=O)c2cc(Cl)c(N)cc2OC)[C@H](OC)C1 (relative stereo) [cisapride-N-ethyoxycarbonyloxymethylammonio, iodide salt] | 4.4 | 
CCCCCCCCCCCC(=O)OC[N+]1(CCCOc2ccc(F)cc2)CC[C@H](NC(=O)c2cc(Cl)c(N)cc2OC)[C@H](OC)C1 (relative stereo) [cisapride-N-lauroyloxymethylammonio, iodide salt] | 5.4 | 
CC(=O)O[C@H](CC(=O)NCCCCCC(=O)OC(C)Cc1ccc([N+](=O)[O-])cc1)C[N+](C)(C)C (stereo partly drawn) [1-(4-nitrophenyl)-2-propanol 6-(O-acetyl-L-carnitinamido)hexanoate ester] | 21.4 | half-life [2]: 21.4 min; half-life [3]: 21.4 min
CC(=O)O[C@H](CC(=O)NCCCCCCOC(=O)OC(C)Cc1ccc([N+](=O)[O-])cc1)C[N+](C)(C)C (stereo partly drawn) [1-(4-nitrophenyl)-2-propanol 6-(O-acetyl-L-carnitinamido)hexanol carbonate, chloride salt] | 3.5 | half-life [2]: 3.5 min
CC(=O)O[C@H](CC(=O)NCCCCCC(=O)OCCc1ccc([N+](=O)[O-])cc1)C[N+](C)(C)C [2-(4-Nitrophenyl)ethanol 6-(O-acetyl-L-carnitinamido)hexanoate ester, chloride salt] | 0.132 | half-life [2]: 0.132 min; half-life [3]: 0.132 min
O=C(OCCc1ccc([N+](=O)[O-])cc1)c1ccc(N2CCOCC2)cc1 [2-(4-nitrophenyl)ethanol 4-morpholino benzoate] |  | In vitro Half-Life (human, serum): 0.0127 h
O=C(OCCc1ccc([N+](=O)[O-])cc1)c1ccc(CN2CCOCC2)cc1 [2-(4-nitrophenyl)ethanol 4-morpholinomethyl-benzoate] | 0.762 | 
O=C(CCCCCN1CCOCC1)OCCc1ccc([N+](=O)[O-])cc1 [2-(4-nitrophenyl)ethanol 6-morpholino-hexanoate] | 0.463 | half-life [2]: 0.463 min
C[N+](C)(C)CCOC(=O)OCCc1ccc([N+](=O)[O-])cc1 [2-(4-nitrophenyl)ethanol choline chloride carbonate ester] | < 0.0333 | half-life [2]: < 0.0333 min
CC(=O)O[C@H](CC(=O)NCCC(=O)OCCc1ccc([N+](=O)[O-])cc1)C[N+](C)(C)C [2-(4-nitrophenyl)ethyl 3-(O-acetyl-L-carnitinamido)propanoate] | 5.5 | half-life [2]: 5.5 min; half-life [3]: 5.5 min

Compound | half-life [1] [min] | further results
CC(=O)O[C@H](CC(=O)NCCc1ccc([N+](=O)[O-])cc1)C[N+](C)(C)C [2-(4-nitrophenyl)ethylamine 3-(O-acetyl)-L-carnitine amide, chloride salt] | 1570 | half-life [2]: 1570 min
C[C@]12CC[C@@H]3c4ccc(OC(=O)OCC[N+](C)(C)C)cc4CC[C@H]3[C@@H]1CC[C@@H]2O [3,17β-estradiol-3-choline carbonate, iodide salt] | 1.53 | 
C[C@]12CC[C@@H]3c4ccc(O)cc4CC[C@H]3[C@@H]1CC[C@@H]2OC(=O)C[N+](C)(C)C [3,17β-estradiol-17β-betaine ester, chloride salt] | 270 | 
C[C@]12CC[C@@H]3c4ccc(O)cc4CC[C@H]3[C@@H]1CC[C@@H]2OC(=O)OCC[N+](C)(C)C [3-hydroxy-17β-estra-trienyl N,N,N-trimethylaminoethyl carbonate, iodide salt] | 16 | 
CC(=O)O[C@H](CC(=O)OCCCCCCOC(=O)O[C@H]1CC[C@H]2[C@@H]3CCc4cc(O)ccc4[C@H]3CC[C@]12C)C[N+](C)(C)C [3-hydroxy-estra-1,3,5-trien-17β-yl 6-(O-acetyl-L-carnitinato)hexyl carbonate, chloride salt] |  | half-life [2]: 240 min
C[N+](C)(C)CCOC(=O)OC1CCC(c2ccc([N+](=O)[O-])cc2)CC1 (stereo not drawn) [4-(4-nitrophenyl)cyclohexanol choline carbonate ester, iodide salt] | 0.327 | half-life [2]: 0.327 min
CCCC(=O)OCn1c(=O)c(F)cn(C(C)OC(=O)CCC[N+](C)(C)C)c1=O.[I-] (stereo not drawn) [5-fluorouracil-1-(4-trimethylammoniobutyroyl-1-oxyethyl)-3-(butyroyloxymethyl), iodide salt] |  | Serum Half-life (Table 5, human serum, 37° C.): 0.162 h
CCCC(=O)OCn1c(=O)c(F)cn(COC(=O)CCC[N+](C)(C)C)c1=O [5-fluorouracil-1-(4-trimethylammoniobutyroyloxymethyl)-3-(butyroyloxymethyl), iodide salt] | 204 | 
CCCCCCCCCCCC(=O)OCn1c(=O)c(F)cn(C(C)OC(=O)CCC[N+](C)(C)C)c1=O.[I-] (stereo not drawn) [5-fluorouracil-1-(N-(4-trimethylammoniobutyroyloxy-1-ethyl)-3-(N-lauroyloxymethyl), iodide salt] |  | Serum Half-life (Table 5, human serum, 37° C.): 0.217 h
CCCCCCCCCCCC(=O)OCn1c(=O)c(F)cn(COC(=O)CCC[N+](C)(C)C)c1=O [5-fluorouracil-1-(N-(4-trimethylammoniobutyroyloxymethyl)-3-(N-lauroxyoxymethyl), iodide salt] | 192 | 
CCCCCCCCCCCC(=O)OCn1cc(F)c(=O)[nH]c1=O [5-fluorouracil-1-(lauroyloxmethyl)] | 3.23 | 
CCCCCCCCCCCC(=O)OCn1cc(F)c(=O)n(COC(=O)CCC[N+](C)(C)C)c1=O [5-fluorouracil-1-(lauroyloxymethyl)-3-(4-trimethylammoniobutyroxyoxymethyl), iodide salt] | 420 | 
CCCCCCCCCCCC(=O)OCn1cc(F)c(=O)n(COC(=O)OCC[N+](C)(C)C)c1=O [5-fluorouracil-1-(lauroyloxymethyl)-3-(cholinecarbonyloxymethyl), iodide salt] | 27 | 
CC(=O)O[C@H](CC(=O)Oc1ccc2c(c1)CC[C@@H]1[C@@H]2CC[C@]2(C)[C@@H](O)CC[C@@H]12)C[N+](C)(C)C [17β-estradiol-3-(O-acetyl-L-carnitine) ester] | 8 | 
CC(=O)O[C@H](CC(=O)O[C@H]1CC[C@H]2[C@@H]3CCc4cc(O)ccc4[C@H]3CC[C@]12C)C[N+](C)(C)C [17β-estradiol-17β-(O-acetyl-L-carnitine) ester] | 240 | 
COc1ccc2c(c1)c(CC(=O)OCC[N+](C)(C)C)c(C)n2C(=O)c1ccc(Cl)cc1 [(indomethacinyl)choline iodide, indomethacinylcholine iodide] | < 1 | 
C[C@]12CC[C@@H]3c4ccc(O)cc4CC[C@H]3[C@@H]1CC[C@@H]2OC(=O)NCC(=O)OCC[N+](C)(C)C [N-[3-hydroxy-estra-1,3,5(10-trien-17β-yl)oxycarbonyl] glycine (choline iodide) ester] | 1.62 | 

— patent US5607691A, “Compositions and methods for enhanced drug delivery” (priority 1995, dated 1997)
